Experimental data taken from patent US20240246948A1, “BENZAMIDE DERIVATIVE, METHOD FOR PREPARING SAME, AND PHARMACEUTICAL COMPOSITION FOR PREVENTION OR TREATMENT OF CANCER CONTAINING SAME AS ACTIVE INGREDIENT” (HK INNO.N CORPORATION, priority 2021, published 2024).

Key:
[1] = biological target: Ba/F3 EGFR L858R/T790M (LT) (Homo sapiens, UniProt P00533, T790M/L858R, cells depend on it); assay: Cell growth inhibitory ability in Ba/F3 cells overexpressing EGFR L858R/T790M (MTS, CellTiter 96 AQueous); type: cell-based; settings: 72 hours, MTS absorbance at 490 nm, read-out: Ba/F3 EGFR double mutant L858R/T790M, IC50
Method: (§1) In order to confirm that the compound represented by formula 1 provided in one aspect of the present invention acts as an allosteric inhibitor against WT and mutant of EGFR, the cell growth inhibitory effect was evaluated in BaF3 cells overexpressing WT and mutant of EGFR.
(§2) More specifically, the cell growth inhibitory ability of the compound of the present invention to the Ba/F3 cell line overexpressing WT and mutant of EGFR was evaluated using CellTiter 96 AQueous Non-Radioactive Cell Proliferation Assay system of Promega, as follows. AQueous Non-Radioactive Cell Proliferation Assay is a method of confirming cell growth inhibitory ability by measuring the degree of color development by reducing MTS (3-(4,5-Dimethylthiazol-2-yl)-5-(3-carboxymethoxyphenyl)-2-(4-sulfophenyl)-2H-tetrazolium) to Formazan by a reductase secreted by mitochondria present in living cells in a cell culture state. The Ba/F3 EGFR WT and Ba/F3 EGFR del19/T790M/C797S (DTC), Ba/F3 EGFR L858R (L), Ba/F3 EGFR L858R/T790M (LT), and Ba/F3 EGFR L858R/T790M/C797S (LTC) mutation cell lines used in the present invention were purchased from the laboratory of Professor Byung-cheol Cho, Yonsei University. All cell lines were cultured in RPMI supplemented with 10% FBS, 1% penicillin-streptomycin and 1 μg/ml of puromycine in a 5% CO2 incubator at 37° C.
(§3) The cell survival inhibitory effect of the compound according to each EGFR mutation was analyzed by the following analysis method.
(§4) BaF3 cells were distributed in a 96-well cell culture plate at the density of 2000˜10000 cells/100 μL/well, and cultured for 24 hours. Thereafter, the concentration of the compound represented by formula 1 provided in one aspect of the present invention was prepared to double the final concentrations of 0.1 nM, 1 nM, 10 nM, 100 nM, 1000 nM and 10000 nM, and the compound was treated to the plate (100 μL/well). The plate was reacted in an incubator at 37° C. for 72 hours. Then, MTS was treated to the plate (20 μL/well) and the plate was incubated at 37° C. for 2 to 4 hours. Finally, after measuring the absorbance at 490 nm using a microplate reader, the relative value compared to 0 nM (% Control) was obtained to confirm the cell growth inhibitory ability of the compound. The measured values were analyzed using Prism program (version 8.0, Graphpad Software, Inc.), and the IC50 value (Inhibition concentration 50), an indicator of the cell growth inhibitory ability of the compound, was calculated.

[2] = biological target: Ba/F3 EGFR L858R/T790M/C797S (LTC) (Homo sapiens, UniProt P00533, T790M/C797S/L858R, cells depend on it); assay: Cell growth inhibitory ability in Ba/F3 cells overexpressing EGFR L858R/T790M/C797S (MTS, CellTiter 96 AQueous); type: cell-based; settings: 72 hours, MTS absorbance at 490 nm, read-out: Ba/F3 EGFR triple mutant L858R/T790M/C797S, IC50
Method: as §1, §2, §3, §4

Ba/F3 EGFR L858R/T790M (LT), sequence (P00533 whole entry T790M/L858R): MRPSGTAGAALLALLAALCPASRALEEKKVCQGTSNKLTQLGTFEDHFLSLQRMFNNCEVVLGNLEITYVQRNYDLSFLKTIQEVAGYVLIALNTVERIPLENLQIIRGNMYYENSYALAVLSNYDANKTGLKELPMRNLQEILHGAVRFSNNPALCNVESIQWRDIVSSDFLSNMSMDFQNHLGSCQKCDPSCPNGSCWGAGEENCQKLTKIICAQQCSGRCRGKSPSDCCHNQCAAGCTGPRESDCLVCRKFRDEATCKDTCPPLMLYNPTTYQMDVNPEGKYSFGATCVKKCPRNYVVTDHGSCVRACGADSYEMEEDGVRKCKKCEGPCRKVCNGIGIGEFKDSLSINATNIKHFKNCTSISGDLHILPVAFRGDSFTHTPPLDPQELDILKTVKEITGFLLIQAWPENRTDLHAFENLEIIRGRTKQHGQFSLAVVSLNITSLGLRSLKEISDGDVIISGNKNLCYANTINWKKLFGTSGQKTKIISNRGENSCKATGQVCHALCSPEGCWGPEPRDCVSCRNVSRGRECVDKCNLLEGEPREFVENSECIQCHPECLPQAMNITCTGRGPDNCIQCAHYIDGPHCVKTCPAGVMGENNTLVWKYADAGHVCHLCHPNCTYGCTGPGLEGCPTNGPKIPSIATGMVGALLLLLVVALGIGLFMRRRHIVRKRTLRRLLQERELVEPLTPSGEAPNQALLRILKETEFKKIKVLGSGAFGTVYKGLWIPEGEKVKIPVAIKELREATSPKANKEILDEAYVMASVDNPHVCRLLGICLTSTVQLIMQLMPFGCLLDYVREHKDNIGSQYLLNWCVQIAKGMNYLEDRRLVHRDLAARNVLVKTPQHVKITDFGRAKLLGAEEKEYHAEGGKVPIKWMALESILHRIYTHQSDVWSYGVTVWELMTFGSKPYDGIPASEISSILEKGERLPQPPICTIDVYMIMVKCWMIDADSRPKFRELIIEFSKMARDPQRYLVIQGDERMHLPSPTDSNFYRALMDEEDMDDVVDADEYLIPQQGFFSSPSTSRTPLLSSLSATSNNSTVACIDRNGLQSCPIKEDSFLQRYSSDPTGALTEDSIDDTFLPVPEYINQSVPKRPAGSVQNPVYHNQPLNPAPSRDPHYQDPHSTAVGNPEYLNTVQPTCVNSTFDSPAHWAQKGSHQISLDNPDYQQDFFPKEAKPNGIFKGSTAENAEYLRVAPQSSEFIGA
Ba/F3 EGFR L858R/T790M/C797S (LTC), sequence (P00533 whole entry T790M/C797S/L858R): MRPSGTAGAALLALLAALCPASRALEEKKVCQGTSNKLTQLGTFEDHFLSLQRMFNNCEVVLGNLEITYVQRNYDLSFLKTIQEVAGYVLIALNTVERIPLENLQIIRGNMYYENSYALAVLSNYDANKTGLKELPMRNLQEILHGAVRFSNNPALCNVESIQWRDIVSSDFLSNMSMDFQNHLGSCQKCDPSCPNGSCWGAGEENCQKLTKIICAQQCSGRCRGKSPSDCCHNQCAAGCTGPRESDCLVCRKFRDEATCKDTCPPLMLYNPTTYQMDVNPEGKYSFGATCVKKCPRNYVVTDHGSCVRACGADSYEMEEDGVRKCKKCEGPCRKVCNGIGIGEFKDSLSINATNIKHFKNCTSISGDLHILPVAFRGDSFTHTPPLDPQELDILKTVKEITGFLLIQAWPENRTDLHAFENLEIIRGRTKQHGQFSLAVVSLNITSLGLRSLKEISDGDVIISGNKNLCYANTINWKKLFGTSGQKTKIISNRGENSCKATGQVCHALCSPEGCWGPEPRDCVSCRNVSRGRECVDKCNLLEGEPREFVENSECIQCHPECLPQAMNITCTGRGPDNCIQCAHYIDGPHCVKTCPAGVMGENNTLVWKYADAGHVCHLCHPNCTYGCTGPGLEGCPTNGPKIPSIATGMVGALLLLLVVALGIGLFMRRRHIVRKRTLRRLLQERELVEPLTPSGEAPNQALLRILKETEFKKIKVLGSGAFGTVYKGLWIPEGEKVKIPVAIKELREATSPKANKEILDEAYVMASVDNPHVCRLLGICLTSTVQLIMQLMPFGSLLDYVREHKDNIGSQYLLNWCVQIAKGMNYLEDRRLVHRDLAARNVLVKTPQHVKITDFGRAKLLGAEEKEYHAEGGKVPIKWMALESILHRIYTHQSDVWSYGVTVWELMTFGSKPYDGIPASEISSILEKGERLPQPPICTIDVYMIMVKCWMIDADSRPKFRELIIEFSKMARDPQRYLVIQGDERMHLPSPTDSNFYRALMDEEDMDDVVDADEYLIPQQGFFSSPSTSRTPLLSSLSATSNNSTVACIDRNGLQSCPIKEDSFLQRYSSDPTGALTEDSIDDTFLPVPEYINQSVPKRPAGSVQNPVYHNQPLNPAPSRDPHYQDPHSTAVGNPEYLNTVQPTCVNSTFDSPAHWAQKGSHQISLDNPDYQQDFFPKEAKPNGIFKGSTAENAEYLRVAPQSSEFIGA

Row | GI50 [1] [nM] | GI50 [2] [nM] | Compound
1 | < 30 | 30 to 200 | Cc1cc(C(=O)N[C@@H](c2cc3ccccc3[nH]2)c2cc(F)ccc2O)cc(-c2cnc(N3CCC(N)CC3)nc2)c1 [Example 16, (R)-3-(2-(4-aminopiperidine-1-yl)pyrimidine-5-yl)-N-((5-fluoro-2-hydroxyphenyl)(1H-indole-2-yl)methyl)-5-methylbenzamide]
2 | > 200 | > 200 | N#Cc1cc(C(=O)N[C@@H](c2cc3ccccc3[nH]2)c2cc(F)ccc2O)cc(-c2ccc(N3CCC(N)CC3)cc2)c1 [Example 9, 4′-(4-aminopiperidine-1-yl)-5-cyano-N-((5-fluoro-2-hydroxyphenyl)(1H-indole-2-yl)methyl)-[1,1′-biphenyl]-3-carboxamide]
3 | < 30 | 30 to 200 | Cc1cc(C(=O)N[C@@H](c2cc3ccccc3[nH]2)c2cc(F)ccc2O)cc(-c2ncc(N3CCCCC3)cn2)c1 [Example 40, N—[(R)-(5-fluoro-2-hydroxy-phenyl)-(1H-indole-2-yl)methyl]-3-methyl-5-[5-(1-piperidyl)pyrimidine-2-yl]benzamide]
4 | > 200 | > 200 | NC1CCN(c2ccc(-c3cc(C(=O)N[C@@H](c4cc5ccccc5[nH]4)c4cc(F)ccc4O)cc(-n4ccnc4)c3)cc2)CC1 [Example 13, (R)-4′-(4-aminopiperidine-1-yl)-N-((5-fluoro-2-hydroxyphenyl)(1H-indole-2-yl)methyl)-5-(1H-imidazole-1-yl)-[1,1′-biphenyl]-3-carboxamide]
5 | < 30 | < 30 | Cc1cc(C(=O)N[C@@H](c2cc3ccccc3[nH]2)c2cc(F)ccc2O)cc(-c2ncc(N3CCN(C4CCN(C)CC4)CC3)cn2)c1 [Example 41, N—[(R)-(5-fluoro-2-hydroxy-phenyl)-(1H-indole-2-yl)methyl]-3-methyl-5-[5-[4-(1-methyl-4-piperidyl)piperazine-1-yl]pyrimidine-2-yl]benzamide]
6 | 30 to 200 | < 30 | Cc1cc(C(=O)N[C@@H](c2cc3ccccc3[nH]2)c2cc(F)ccc2O)cc(-c2ncc(N3CCN(C)CC3)cn2)c1 [Example 37, (R)—N-((5-fluoro-2-hydroxyphenyl)(1H-indole-2-yl)methyl)-3-methyl-5-(5-(4-methylpiperazine-1-yl)pyrimidine-2-yl)benzamide]
7 | < 30 | 30 to 200 | Cc1cc(C(=O)N[C@@H](c2cc3ccccc3[nH]2)c2cc(F)ccc2O)cc(-c2cnc(N3CCC(N)CC3)nc2C)c1 [Example 34, (R)-3-(2-(4-aminopiperidine-1-yl)-4-methylpyrimidine-5-yl)-N-((5-fluoro-2-hydroxyphenyl)(1H-indole-2-yl)methyl)-5-methylbenzamide]
8 | < 30 | < 30 | Cc1cc(C(=O)N[C@@H](c2cc3ccccc3[nH]2)c2cc(F)ccc2O)cc(-c2cnc(N3CCC(N)CC3)cn2)c1 [Example 18, (R)-3-(5-(4-aminopiperidine-1-yl)pyrazine-2-yl)-N-((5-fluoro-2-hydroxyphenyl)(1H-indole-2-yl)methyl)-5-methylbenzamide]
9 | < 30 | 30 to 200 | Cc1cc(C(=O)N[C@@H](c2cc3ccccc3[nH]2)c2cc(F)ccc2O)cc(-c2ccc(CN3CCC(N(C)C)CC3)cn2)c1 [Example 42]
10 | > 200 | > 200 | CC(C)c1cc(C(=O)N[C@@H](c2cc3ccccc3[nH]2)c2cc(F)ccc2O)cc(-c2ccc(N3CCC(N)CC3)cc2)c1 [Example 2, (R)-4′-(4-aminopiperidine-1-yl)-N-((5-fluoro-2-hydroxyphenyl)(1H-indole-2-yl)methyl)-5-isopropyl-[1,1′-biphenyl]-3-carboxamide]
11 | < 30 | < 30 | Cc1cc(C(=O)N[C@@H](c2cc3ccccc3[nH]2)c2cc(F)ccc2O)cc(-c2ccc(N3CCC(N)CC3)cc2F)c1 [Example 24, (R)-4′-(4-aminopiperidine-1-yl)-2′-fluoro-N-((5-fluoro-2-hydroxyphenyl)(1H-indole-2-yl)methyl)-5-methyl-[1,1′-biphenyl]-3-carboxamide]
